In patent publication US8552037B2, “Tricyclic compound and pharmaceutical use thereof” (Takeda Pharmaceutical Company Limited, priority 2006, dated 2013):

melting point	Structure (SMILES)
148 to 150 °C	CCC(=O)NCC=C1CCc2ccc3ncoc3c21 [Example 2, N-[2-(6,7-Dihydro-8H-indeno[5,4-d][1,3]oxazol-8-ylidene)ethyl]propionamide]
111 to 113 °C	CCC(=O)NCC=C1CCc2ccc3nc(CCCCc4ccccc4)oc3c21 [Example 7, N-{2-[2-(4-Phenylbutyl)-6,7-dihydro-8H-indeno[5,4-d][1,3]oxazol-8-ylidene]ethyl}propionamide]
89 to 90 °C	CCC(=O)NCCC1CCc2ccc3ncoc3c21 (stereo not shown) [Example 10, N-[2-(7,8-Dihydro-6H-indeno[5,4-d][1,3]oxazol-8-yl)ethyl]propionamide]
73 to 76 °C	Cc1nc2ccc3c(c2o1)C(CCNC(=O)c1ccccc1)CC3 (stereo not shown) [Example 44, N-[2-(2-Methyl-7,8-dihydro-6H-indeno[5,4-d][1,3]oxazol-8-yl)ethyl]benzamide]
132 to 134 °C	CC(=O)NCCC1CCc2ccc3nc(CO)oc3c21 (stereo not shown) [Example 23, N-{2-[2-(Hydroxymethyl)-7,8-dihydro-6H-indeno[5,4-d][1,3]oxazol-8-yl]ethyl}acetamide]
111 to 112 °C	CC(=O)CCc1nc2ccc3c(c2o1)C(CCNC(C)=O)CC3 (stereo not shown) [Example 28, N-{2-[2-(3-Oxobutyl)-7,8-dihydro-6H-indeno[5,4-d][1,3]oxazol-8-yl]ethyl}acetamide]
136 to 138 °C	CCNC(=O)NCCC1CCc2ccc3nc(C)oc3c21 (stereo not shown) [Example 46, 1-Ethyl-3-[2-(2-methyl-7,8-dihydro-6H-indeno[5,4-d][1,3]oxazol-8-yl)ethyl]urea]
85 to 87 °C	CC(=O)NCCC1CCc2ccc3nc(CCc4ccccc4)oc3c21 (stereo not shown) [Example 32, N-{2-[2-(2-Phenylethyl)-7,8-dihydro-6H-indeno[5,4-d][1,3]oxazol-8-yl]ethyl}acetamide]
135 to 138 °C	CC(=O)NCCC1=C(C(C)C)Cc2ccc3nc(C)oc3c21 [Example 49, N-[2-(7-Isopropyl-2-methyl-6H-indeno[5,4-d][1,3]oxazol-8-yl)ethyl]acetamide]
124 to 126 °C	CC(=O)NCCC1CCc2ccc3nc(-c4ccccc4)oc3c21 (stereo not shown) [Example 30, N-[2-(2-Phenyl-7,8-dihydro-6H-indeno[5,4-d][1,3]oxazol-8-yl)ethyl]acetamide]
115 to 117 °C	CSc1nc2ccc3c(c2o1)C(CCNC(C)=O)CC3 (stereo not shown) [Example 39, N-{2-[2-(Methylthio)-7,8-dihydro-6H-indeno[5,4-d][1,3]oxazol-8-yl]ethyl}acetamide]
114 to 116 °C	CC(=O)NCCC1CCc2ccc3nc(C(F)(F)F)oc3c21 (stereo not shown) [Example 25, N-{2-[2-(Trifluoromethyl)-7,8-dihydro-6H-indeno[5,4-d][1,3]oxazol-8-yl]ethyl}acetamide]
95 to 97 °C	CC(=O)NCCC1CCc2ccc3nc(CCCc4ccccc4)oc3c21 (stereo not shown) [Example 33, N-{2-[2-(3-Phenylpropyl)-7,8-dihydro-6H-indeno[5,4-d][1,3]oxazol-8-yl]ethyl}acetamide]
